# Reference: patent US5098900A, “3(2H)pyridazinone, process for its preparation and anti-allergic agent containing it” (Nissan Chemical Industries Ltd., priority 1984, dated 1992)
# Legend:
# LTC4 = LTC4 antagonism in isolated guinea-pig trachea (LTC4-induced contraction); format: cell-based; settings: test compound 10^-5 g/ml, LTC4 2×10^-8 g/ml, guinea-pig trachea, 5 min; for inhibition at 10 µg/mL: Cavia porcellus, read-out: LTC4 antagonism
# Procedure: (§1) (ii) LTC4 and LTD4 antagonisms in guinea-pig trachea
# (§2) Antagonism for LTC4 and LTD4 were determined in isolated guinea-pig trachea prepared as spiral strip. 10 Tracheal preparations were suspended under 1 g tension in […] and they were incubated for 1 hr prior to use. Contractile responses to LTC4 (2×10^-8 g/ml) and LTD4 (2×10^-8 g/ml) were obtained after the maximal response to histamine (10^-4 M). Test compounds dissolved in 100% dimethyl sulfoxide were added to the organ baths (final concentration of 10^-5 g/ml) 5 min prior to LTC4 and LTD4 addition, and then contractile responses to LTC4 and LTD4 were compared with those of control which was obtained from a paired trachea in the absence of test compounds. LTC4 - and LTD4 -induced contractions were expressed as a percentage of the maximal response to histamine. The antagonism was determined as follows: Antagonism (%)=(1.0-% contraction in test/% contraction in control)×100
# [1] = tested on: antigen-induced anaphylactic bronchoconstriction; assay: Effect on anaphylactic bronchoconstriction in passively sensitized guinea-pig; format: in vivo; settings: 2 mg/kg, i.v.
# Procedure: (iii) Effect on anaphylactic bronchoconstriction in passively sensitized guinea-pig
# Male guinea-pigs (350-450 g) were passively sensitized with intravenous (i.v.) injection of 0.125 ml rabbit anti-EA serum (Cappel Laboratories) 1 day preceding the experiment. […] The right jugular vein was cannulated for the administration of the all agents and trachea was cannulated to record total pulmonary resistance. Guinea-pigs were artificially ventilated by a small animal respirator (Shinano, Model SN-480-7) set at a stroke volume of 4-5 ml and a rate of 50 breaths per min. […] The increase in air overflow volume was expressed as a percentage of the maximum bronchoconstriction obtained by clamping off the trachea. Following surgical preparation, the animals were pretreated with indomethacin (1.0 mg/kg, 10 min), pyrilamine (2 mg/kg, 6 min) and propranolol (0.1 mg/kg, 5 min) prior to the EA challenge (0.1 or 10 mg/kg). All test compounds, 2 mg/kg in 3% Tween 80 or 3% PEG-400, were administered 1 min before the EA challenge. Inhibition (%) of bronchoconstriction was determined as follows Inhibition (%)=(1.0% -maximum bronchoconstriction in test/% maximum bronchoconstriction in control) ×100.
# In the Table, the dose of EA was 10 mg/kg, and each compound was dissolved or suspended in 3% Tween 80.
# In the Table, the dose of EA was 0.1 mg/kg.
# *: PEG represents polyethylene glycol400.
# LTD4 = LTD4 antagonism in isolated guinea-pig trachea (LTD4-induced contraction); format: cell-based; settings: 5 min, test compound 10^-5 g/ml, LTD4 2×10^-8 g/ml; for inhibition at 10 µg/mL: Cavia porcellus
# Procedure: as §1, §2
# ddY strain male = assay: Acute toxicity test, method-(2), intraperitoneal injection; format: in vivo, ddY strain male (4 weeks old); settings: 7 days
# Procedure: The lethal ratio was determined in ddY strain male (4 weeks old) at 7 days after the intraperitoneal injection of test compounds.
smiles,measurement,setting,value
CCN1CCN(Cc2ccc(CNc3cnn(C(C)(C)C)c(=O)c3Cl)cc2)CC1 [compound 49],LTC4 antagonism,LTC4,8%
"CCCn1ncc(NCc2ccc(OC)c(OC)c2)c(Cl)c1=O [Compound No. 14, 4-Chloro-5-(3,4-dimethoxybenzylamino)-2-n-propyl-3-(2H)pyridazinone]",Inhibition of anaphylactic bronchoconstriction,"[1]; EA 10 mg/kg, 3% Tween 80",28%
same,inhibition at 10 µg/mL,LTD4,36%
same,inhibition at 10 µg/mL,LTC4,100%
CCOc1cc(CNc2cnn(CC)c(=O)c2Cl)ccc1OC [compound 102],inhibition at 10 µg/mL,LTD4,86%
same,Lethal ratio (Death number/Experimental number),ddY strain male; 100 mg/kg,0/2
same,inhibition at 10 µg/mL,LTC4,97%
COc1ccc(CNc2cnn(C(C)C)c(=O)c2Cl)cc1 [Compound No. 87],Inhibition of anaphylactic bronchoconstriction,"[1]; EA 0.1 mg/kg, Tween 80",61%
same,inhibition at 10 µg/mL,LTD4,100%
same,Lethal ratio (Death number/Experimental number),ddY strain male; 200 mg/kg,0/2
same,Lethal ratio (Death number/Experimental number),ddY strain male; 400 mg/kg,0/2
CCn1ncc(NCc2ccc(OC)cc2OC)c(Cl)c1=O [compound 99],inhibition at 10 µg/mL,LTD4,99%
same,Lethal ratio (Death number/Experimental number),ddY strain male; 100 mg/kg,0/2
CN(C)CCCNC(=O)c1ccc(CNc2cnn(C(C)(C)C)c(=O)c2Cl)cc1 [compound 59],inhibition at 10 µg/mL,LTC4,17%
Cc1cccc(CNc2cnn(C(C)C)c(=O)c2Cl)c1 [compound 76],inhibition at 10 µg/mL,LTD4,97%
same,Lethal ratio (Death number/Experimental number),ddY strain male; 200 mg/kg,0/2
same,Lethal ratio (Death number/Experimental number),ddY strain male; 400 mg/kg,0/1
CC(C)(C)n1ncc(NCc2ccc(C(=O)N3CCOCC3)cc2)c(Cl)c1=O [compound 40],inhibition at 10 µg/mL,LTC4,17%
COC(=O)/C=C/c1ccc(CNc2cnn(C(C)(C)C)c(=O)c2Cl)cc1 [compound 53],Inhibition of anaphylactic bronchoconstriction,"[1]; EA 10 mg/kg, 3% Tween 80",38%
same,inhibition at 10 µg/mL,LTD4,38%
CCN(CC)c1ccc(CNc2cnn(C(C)(C)C)c(=O)c2Cl)cc1 [compound 29],inhibition at 10 µg/mL,LTC4,68%
CCn1ncc(NCc2ccc(OC)c(OC)c2)c(Cl)c1=O [Compound No. 13],Inhibition of anaphylactic bronchoconstriction,"[1]; EA 10 mg/kg, 3% Tween 80",43%
same,inhibition at 10 µg/mL,LTD4,76%
Cc1ccc(CNc2cnn(C(C)C)c(=O)c2Cl)cc1 [compound 77],inhibition at 10 µg/mL,LTD4,90%
same,Lethal ratio (Death number/Experimental number),ddY strain male; 200 mg/kg,0/2
same,Lethal ratio (Death number/Experimental number),ddY strain male; 400 mg/kg,0/2
CCOc1ccccc1CNc1cnn(CC)c(=O)c1Cl [compound 90],inhibition at 10 µg/mL,LTD4,96%
same,Lethal ratio (Death number/Experimental number),ddY strain male; 200 mg/kg,0/2
same,Lethal ratio (Death number/Experimental number),ddY strain male; 400 mg/kg,0/2
CC(C)(C)n1ncc(NCc2ccc(/C=C/C(=O)O)cc2)c(Cl)c1=O [compound 24],inhibition at 10 µg/mL,LTC4,7%
COc1ccc(CNc2cnn(C(C)C)c(=O)c2Cl)cc1OC [Compound No. 15],Inhibition of anaphylactic bronchoconstriction,"[1]; EA 10 mg/kg, 3% Tween 80",56%
same,inhibition at 10 µg/mL,LTD4,80%
same,inhibition at 10 µg/mL,LTC4,100%
CN(C)Cc1ccc(CNc2cnn(C(C)(C)C)c(=O)c2Cl)cc1 [compound 48],inhibition at 10 µg/mL,LTC4,30%
CCCOc1cccc(CNc2cnn(CC)c(=O)c2Cl)c1 [compound 93],inhibition at 10 µg/mL,LTD4,96%
same,inhibition at 10 µg/mL,LTC4,93%
Cc1ccccc1CNc1cnn(C(C)C)c(=O)c1Cl [compound 78],inhibition at 10 µg/mL,LTD4,97%
same,Lethal ratio (Death number/Experimental number),ddY strain male; 200 mg/kg,0/2
same,Lethal ratio (Death number/Experimental number),ddY strain male; 400 mg/kg,0/1
CCCOc1cccc(CNc2cnn(C(C)C)c(=O)c2Cl)c1 [compound 94],inhibition at 10 µg/mL,LTD4,75%
same,Lethal ratio (Death number/Experimental number),ddY strain male; 200 mg/kg,0/2
same,inhibition at 10 µg/mL,LTC4,83%
CC(C)n1ncc(NCc2ccc3c(c2)OCO3)c(Cl)c1=O [compound 119],Inhibition of anaphylactic bronchoconstriction,"[1]; EA 0.1 mg/kg, Tween 80",33%
same,inhibition at 10 µg/mL,LTD4,100%
same,inhibition at 10 µg/mL,LTC4,100%
CN(C)c1ccc(CNc2cnn(C(C)(C)C)c(=O)c2Br)cc1 [compound 28],inhibition at 10 µg/mL,LTD4,52%
"CC(C)n1ncc(N(C)Cc2cccc(OCCCCCO)c2)c(Cl)c1=O [Compound No. 150, 4-Chloro-5-[3-(5-hydroxy)pentoxy-N-methyl-benzylamino]-2-i-propyl-3(2H)pyridazinone]",inhibition at 10 µg/mL,LTD4,57%
"CCCN(CCC)Cc1ccc(CN(C)c2cnn(C(C)(C)C)c(=O)c2Cl)cc1 [Compound No. 43, 4-Chloro-5-(4-di-n-propylaminomethyl-N-methylbenzylamino)-2-t-butyl-3(2H)pyridazinone]",Inhibition of anaphylactic bronchoconstriction,"[1]; EA 10 mg/kg, 3% Tween 80",14%
same,inhibition at 10 µg/mL,LTC4,57%
"COc1ccc(CNc2cnn(C(C)C)c(=O)c2C)cc1 [Compound No. 151, 4-Methyl-5-(4-methoxybenzylamino)-2-i-propyl-3(2H)-pyridazinone]",inhibition at 10 µg/mL,LTD4,78%
CCn1ncc(NCc2ccc(OC)cc2OC)c(Br)c1=O [compound 159],inhibition at 10 µg/mL,LTD4,98%
CCc1cc(CNc2cnn(C(C)C)c(=O)c2Cl)ccc1O [compound 131],inhibition at 10 µg/mL,LTD4,52%
CCOc1cccc(CNc2cnn(C(C)C)c(=O)c2Cl)c1OC [compound 111],inhibition at 10 µg/mL,LTD4,72%
COc1cc(CNc2cnn(C(C)C)c(=O)c2Cl)cc(OC)c1OC [compound 122],inhibition at 10 µg/mL,LTD4,23%
COc1ccc(CNc2cnn(C(C)C)c(=O)c2Br)cc1 [compound 162],inhibition at 10 µg/mL,LTD4,100%
CCOc1cc(OC)ccc1CNc1cnn(C(C)C)c(=O)c1Cl [compound 109],Inhibition of anaphylactic bronchoconstriction,"[1]; EA 0.1 mg/kg, Tween 80",30%
same,inhibition at 10 µg/mL,LTD4,92%
CCCCCOc1cc(CNc2cnn(C(C)(C)C)c(=O)c2Cl)ccc1OC [compound 20],inhibition at 10 µg/mL,LTD4,17%
CCOc1cccc(CNc2cnn(C(C)C)c(=O)c2)c1O [compound 128],inhibition at 10 µg/mL,LTD4,21%
CCn1ncc(NCc2ccc(OC)cc2)c(Br)c1=O [compound 154],inhibition at 10 µg/mL,LTD4,100%
Cc1ccc(CNc2cnn(C(C)C)c(=O)c2Cl)c(C)c1 [Compound No. 80],inhibition at 10 µg/mL,LTD4,99%
same,Lethal ratio (Death number/Experimental number),ddY strain male; 200 mg/kg,0/2
same,Lethal ratio (Death number/Experimental number),ddY strain male; 400 mg/kg,0/1
CCOc1ccc(CNc2cnn(C(C)C)c(=O)c2Cl)cc1OC [compound 107],inhibition at 10 µg/mL,LTD4,65%
"CCOc1ccc(CNc2cnn(C(C)C)c(=O)c2Br)cc1 [Compound No. 164, 4-Bromo-5-(4-ethoxybenzylamino)-2-i-propyl-3(2H)pyridazinone]",inhibition at 10 µg/mL,LTD4,82%
"CC(C)n1ncc(NCc2ccccc2)c(Cl)c1=O [Compound No. 74, 4-Chloro-5-(benzylamino)-2-i-propyl-3(2H)pyridazinone]",Inhibition of anaphylactic bronchoconstriction,"[1]; EA 0.1 mg/kg, Tween 80",31%
same,inhibition at 10 µg/mL,LTD4,91%
CCOc1cc(CNc2cnn(C(C)C)c(=O)c2Cl)ccc1O [compound 135],inhibition at 10 µg/mL,LTD4,61%
CCOc1cccc(CNc2cnn(CC)c(=O)c2Br)c1 [compound 156],inhibition at 10 µg/mL,LTD4,72%
CCOc1cccc(CNc2cnn(CC)c(=O)c2Cl)c1OCc1ccccc1 [compound 116],inhibition at 10 µg/mL,LTD4,89%
CC(C)n1ncc(NCc2ccc(N(C)C)cc2)c(Cl)c1=O [compound 26],LTD4 antagonism,LTD4,38%
CCOc1cccc(CNc2cnn(CC)c(=O)c2Cl)c1O [compound 129],inhibition at 10 µg/mL,LTD4,48%
CCCOc1cc(OC)ccc1CNc1cnn(CC)c(=O)c1Cl [compound 112],Inhibition of anaphylactic bronchoconstriction,"[1]; EA 0.1 mg/kg, Tween 80",49%
same,inhibition at 10 µg/mL,LTD4,86%
"CC(C)n1ncc(NCc2cccc(OCCCCC(=O)OC(C)(C)C)c2)c(Cl)c1=O [Compound No. 139, 4-Chloro-5-[3-(4-t-butoxycarbonyl)butoxybenzylamino]-2-i-propyl-3(2H)pyridazinone]",inhibition at 10 µg/mL,LTD4,57%
CCn1ncc(NCc2cccc(OC)c2)c(Cl)c1=O [Compound No. 6],inhibition at 10 µg/mL,LTD4,62%
same,inhibition at 10 µg/mL,LTC4,33%
